This note sets out measurements from ChEMBL document CHEMBL5528001, “Synthetic product-based approach toward potential antileishmanial drug development” (Eur J Med Chem, 2024).

Assay [1] concerns Leishmania amazonensis. The assay can be described thus: Antileishmanial activity against Leishmania amazonensis MHOM/BR/75/Josefa promastigotes assessed as reduction in parasite viability after 72 hrs by Neubauer chamber counting method. In kind it is functional, organism-based.
Assay [2] has as its system Leishmania infantum. Kind of assay: Antileishmanial activity against Leishmania infantum axenic amastigotes (MCAN/ES/89/IPZ229/1/89) assessed as inhibition of parasite proliferation measured after 24 hrs by resazurin dye based fluorescence analysis. In kind it is functional, organism-based. Particulars: MCAN/ES/89/IPZ229/1/89, 24 h. On the technique in general: Alamar Blue is a resazurin reagent that responds to reducing activity.

The test system of assay [3] is Leishmania braziliensis. Kind of assay: Antileishmanial activity against Leishmania braziliensis MHOM/BR/75/M2904 promastigotes assessed as reduction in cell viability incubated for 48 hrs by resazurin staining based assay. In kind it is functional, organism-based. The conditions noted are these: MHOM/BR/75/M2904, 48 h.
Assay [4] relates to Leishmania donovani. Kind of assay: Antileishmanial activity against Leishmania donovani promastigotes infected in golden hamster assessed as reduction in parasite load in spleen at 20 mg/kg administered twice per week for 4 weeks relative to control. The format is functional. Set-up: scale not given: the % may be the effect or the level left.
For assay [5], the system named is Leishmania donovani. Kind of assay: Antileishmanial activity against Leishmania donovani promastigotes infected in golden hamster assessed as reduction in parasite load in liver at 20 mg/kg administered twice per week for 4 weeks relative to control. The format is functional. Set-up: scale not given: the % may be the effect or the level left.
Assay [6] deals with Leishmania major. The assay can be described thus: Antileishmanial activity against Leishmania major MHOM/IR/-173 promastigotes assessed as inhibition of parasite growth measured for 24 hrs by resazurin dye-based analysis relative to control. The format is functional. On the set-up: scale not given: the % may be the effect or the level left.
The subject of assay [7] is Leishmania major. Kind of assay: Antileishmanial activity against Leishmania major MHOM/IL/80/Friendlin assessed as reduction in parasite growth incubated for 48 hrs by MTT assay. In kind it is functional, organism-based. A general note: Formazan colour is commonly taken as a measure of viable cells.
Assay [8] is described as follows: Antileishmanial activity against Leishmania infantum BCN-150 promastigotes assessed as reduction in parasite growth incubated for 48 hrs by MTT assay. The format is functional.
Assay [9] has as its system HT-29. Kind of assay: Antiproliferative activity against human HT-29 cells assessed as reduction in cell viability incubated for 48 hrs by MTT assay. The format is functional, cell-based. The conditions noted are these: HT-29, 48 h.
The subject of assay [10] is NCI-H1299. The assay can be described thus: Antiproliferative activity against human NCI-H1299 cells assessed as reduction in cell viability incubated for 48 hrs by MTT assay. The format is functional, cell-based. Particulars: NCI-H1299, 48 h.
Assay [11] has as its system Leishmania infantum. Kind of assay: Antileishmanial activity against Leishmania infantum MCAN/ES/ 89/IPZ229/1/89 axenic amastigotes assessed as reduction in parasite viability treated for 48 hrs by PI staining based flow cytometry. The conditions noted are these: MCAN/ES/89/IPZ229/1/89, 48 h. The format is functional, organism-based. In general terms: A flow cytometer gives signals particle by particle.

Assay [12] relates to Leishmania donovani. Kind of assay: Antileishmanial activity against Leishmania donovani promastigotes assessed as inhibition of cell growth measured after 3 days by resazurin/alamar blue-staining based analysis. The format is functional, organism-based. Particulars: 72 h.
For assay [13], the system named is Leishmania infantum. Kind of assay: Antileishmanial activity against Leishmania infantum MON-1 promastigotes assessed as reduction in parasite viability measured after 48 hrs by MTT assay. In kind it is functional, organism-based. The conditions noted are these: MON-1, 48 h.
Assay [14] concerns HepG2. The assay can be described thus: Antiproliferative activity against human HepG2 cells assessed as reduction in cell growth measured for 72 hrs by MTT assay. The format is functional, cell-based. Particulars: HepG2, 72 h.
Assay [15] relates to HepG2. Kind of assay: Cytotoxicity against human HepG2 cells assessed as reduction in cell growth measured for 48 hrs by MTT assay. In kind it is functional.
The test system of assay [16] is Leishmania donovani. The assay can be described thus: Antileishmanial activity against Leishmania donovani Ag83 promastigotes infected in BALB/c mouse assessed as reduction in parasite infection at 5 to 20 mg/kg by propidium iodide staining analysis. In kind it is functional, organism-based.
The subject of assay [17] is Leishmania infantum. The assay can be described thus: Antileishmanial activity against Leishmania infantum MHOM/BR/70/BH46 promastigotes assessed as reduction in parasite growth incubated for 72 hrs by resazurin staining based analysis. In kind it is functional, organism-based. Particulars: MHOM/BR/70/BH46, 72 h.
Assay [18] relates to Leishmania donovani. Kind of assay: Antileishmanial activity against Leishmania donovani MHOM/ET/67/HU3 intracellular amastigotes infected in human THP-1 cells assessed as inhibition of parasite growth incubated for 72 hrs by resazurin based colorimetric assay. The format is functional, organism-based. Particulars: MHOM/ET/67/HU3, THP-1, 72 h.
Assay [19] has as its system Leishmania donovani. The assay can be described thus: Antileishmanial activity against Leishmania donovani infected in BALB/c mouse model assessed as reduction in parasite growth at 75 mg/kg, po administered for 5 consecutive days. In kind it is functional. On the set-up: scale not given: the % may be the effect or the level left.
Assay [20] concerns Leishmania donovani. The assay can be described thus: Antileishmanial activity against Leishmania donovani S1 promastigotes assessed as parasite growth inhibition incubated for 72 hrs by Alamar blue assay. The format is functional, organism-based. Particulars: S1, 72 h.
The test system of assay [21] is Trypanosoma brucei. Kind of assay: Antitrypanosomal activity against Trypanosoma brucei assessed as parasite growth inhibition. The format is functional, organism-based.

What is called IC50 is the concentration needed to halve the response being measured. `CN(C)c1ccc(-c2nc(C(=O)NCCCl)cc3c2[nH]c2ccccc23)cc1`: in [1], the concentration for half-maximal inhibition (IC50) worked out at 16.8 µM.

Take `CCCCCCCCCn1cc(COC(C)=O)[n+](C)n1`: the IC50 in assay [2] came to 5.36 µM; in [3] it was 4.55 µM. Besides, the Activity is given as 59.8% in assay [4] and 26.88% in assay [5].

On to `O=C(Cn1cnc2ccccc2c1=O)N1CCC2(CC1)OCCO2`, for which the Activity in assay [6] is given as 35%.

On to `N#C[Se]/C=C/c1ccccc1`, for which the IC50 in assay [7] worked out at 3.3 µM; in [8], 3.7 µM; in assay [9] it was 11.9 µM; in assay [10], 11.9 µM.

`CC1(C)Oc2c(c(=O)[nH]c3ccccc23)[C@H]2[C@@H](Cl)[C@](C)(O)CC[C@@H]21`: the half-maximal inhibitory concentration (IC50) in [11] was determined as 8.1 µM.

As for `O=c1c2ccccc2nc(/C=C/c2ccc([N+](=O)[O-])cc2)n1-c1ccccc1`, the IC50 in [12] worked out at 0.02 µM.

By EC50 is commonly meant the concentration that produces a half-maximal response. As usually defined, the CC50 is the concentration that lowers cell viability or growth by half. Take `CCOC(=O)c1cc2c([nH]c3ccccc32)c(-c2cn(-c3ccccc3)nn2)n1`: the concentration giving a half-maximal response (EC50) stood at 4.8 µM in [13] and 13.6 µM in assay [14]. Further, the CC50 in assay [15] is over 200 µM.

In the case of `O=C(Nc1cncs1)C(c1ccccc1)c1ccc(Cl)cc1` (stereo unspecified), the half-maximal inhibitory concentration (IC50) in [16] is 3.2 µM.

`Cc1cc(Br)cc2c(/C=N/NC(=S)Nc3ccccc3)c[nH]c12`: in assay [17], the IC50 stood at 5.6 µM.

As for `CC(C)Oc1cc(OCCCCCCCCn2ccnc2)ccc1NC(=N)c1ccccn1`, in [18], the IC50 turned out to be 0.53 µM. In addition, in assay [19], the Activity came to 33%.

For `CN(C)c1ccc(-c2nc(C3=NCCO3)cc3c2[nH]c2ccccc23)cc1`, the IC50 in assay [1] was found to be 6.1 µM.

For the compound `COc1cccc2c1O/C(=C(/C)c1ncc([N+](=O)[O-])[nH]1)C2=O`, in assay [20], the IC50 stood at 0.016 µM.

For the compound `CCCc1cn(CCN2CCN(C(=O)c3c(C)nc4ccc(C)cn34)CC2)nn1`, in assay [21], the IC50 stood at 0.72 µM.

As to `N#C[Se]c1ccc2c(c1)OCO2`, the 50% inhibitory concentration (IC50) in assay [7] was 4.6 µM; in assay [8], 3.3 µM; in assay [9], 61.2 µM; in assay [10] it was 82.5 µM.
